One compound from patent US20240294471A1, “ROS-RESPONSIVE CAPTOPRIL-CINNAMALDEHYDE PRODRUGS AND COMPOSITIONS AND METHODS THEREOF” (The University of Hong Kong, priority 2021, published 2024) can be followed below.

For data set [1], the system named is LPS-stimulated Raw 264.7 cells. The data set is described as follows: NO generation (nitrite in culture supernatant, Griess reagent). It is filed as cell-based. The conditions noted are these: Raw264.7 cells, LPS 10 μg/mL, 24 h, dose-dependent, FIG. 2. The protocol: Nitrite levels, an index of cellular NO production, in culture supernatants of Raw 264.7 cells were determined using a modified Griess reagent. Briefly, Raw 264.7 cells were seeded in 24-well plates. After a 24 h incubation, prodrugs were added to the cells at different concentrations and incubated for 1 h, and then the cells were treated with or without LPS (10 μg/mL) for another 24 h. The supernatant was mixed with an equal volume of Griess reagent and incubated at room temperature for 15 min. The absorbance at 540 nm was measured. Three replicate wells were used in this experiment.

Data set [2] in a line: ROS-responsiveness: HPLC monitoring of CAPT-CA degradation in the presence of H2O2. The conditions noted are these: CAPT-CA 160 μM, H2O2 40 mM. It counts as physicochemical. As for the experimental part:
HPLC spectra of CAPT, CA, CAPT-CA prodrug, and the degradation of CAPT-CA (160 μM) in the presence of H2O2 (40 mM) for different times were obtained. A C18 column was used. The mobile phase A was acetonitrile containing 0.1% TFA and mobile phase B was water containing 0.1% TFA. The elution procedure was shown as below: 0-5 min: 98% B→98% B; 5-15 min: 98% B→40% B; 15-17 min: 40% B→40% B. The flow rate was 1.5 mL/min. The detection wavelength was 220 nm.
To evaluate the ROS-responsiveness of CAPT-CA, high performance liquid chromatography (HPLC) has been employed to monitor the release of CAPT and CA after incubation of CAPT-CA with a ROS reagent (hydrogen peroxide, H2O2). The retention time of free CAPT, free CA and CAPT-CA was at 10.138 min, 13.275 min, 14.283 min, respectively.

In data set [3] the test system is LPS-stimulated Raw264.7 cells. Nature of the data set: Protein levels of TNF-α, IL-1β and IL-6 by ELISA. It counts as cell-based. As to conditions: supernatant, 24 h, dose dependent, FIGS. 3A-3C. As for the experimental part: The protein levels of TNF-α, IL-1β and IL-6 were determined by ELISA. Briefly, Raw 264.7 cells were seeded in 24-well plates. After a 24 h incubation, prodrugs were added to the cells at different concentrations and incubated for 1 h, and then the cells were treated with or without LPS (10 μg/mL) for another 24 h. The supernatants were collected for determination of protein levels according to the ELISA kit's instruction. Three replicate wells were used in this experiment.
For orientation: ELISA stands for enzyme-linked immunosorbent assay.

The test system of data set [4] is Raw 264.7 cells. Nature of the data set: Cytotoxicity test (MTT assay). The conditions noted are these: Raw264.7 cells, 24 h, with or without LPS (10 μg/mL), tested concentration range, FIG. 1. It is filed as cell-based. As for the experimental part: The effect of the prodrug on the viability of Raw 264.7 cells was determined using the MTT assay. Briefly, Raw 264.7 cells were seeded in 24-well plates. After a 24 h incubation, prodrugs were added to the cells at different concentrations and incubated for 1 h, and then, the cells were treated with or without LPS (10 μg/mL) for another 24 h. Next, 50 μL of MTT solution (5 mg/mL) were added to each well and the cells were incubated for 3 h at 37° C. Then, 1 mL of DMSO were added to dissolve the MTT-formazan crystal. The absorbance at 570 nm and 630 nm were measured. Three replicate wells were used in this experiment.

Data set [5] relates to LPS-stimulated Raw264.7 cells. Nature of the data set: mRNA levels of proinflammatory cytokines by qRT-PCR. It counts as cell-based. As to conditions: 24 h, dose dependent, FIGS. 4A-4C. As for the experimental part:
[…] Briefly, Raw 264.7 cells were seeded in 12-well plates. After a 24 h incubation, prodrugs were added to the cells at different concentrations and incubated for 1 h, and then the cells were treated with or without LPS (10 μg/mL) for another 24 h. qRT-PCR experiments were measured according to the manufacturer's instruction. Three replicate wells were used in this experiment.

As for `CC(CSC(/C=C/c1ccccc1)SCC(C)C(=O)N1CCCC1C(=O)O)C(=O)N1CCCC1C(=O)O` (stereo not drawn) [CAPT-CA], in data set [1], the “NO generation resulting from LPS stimulation” value is recorded as “significantly suppressed”. Further, the “prodrug peak in HPLC after incubation with H2O2 (release of free CA and CAPT)” value in data set [2] (4 h) was “prodrug peak decreases”. The “prodrug peak in HPLC after incubation with H2O2” value in data set [2] (22 h) is listed as “almost disappeared”. Further, the “protein levels of the cytokines (TNF-α, IL-1β, IL-6)” value in data set [3] is recorded as “significantly down-regulates”. The “cytotoxicity of the prodrug” value in data set [4] was “minimal”. The “mRNA levels of the cytokines (TNF-α, IL-6, IL-1β)” value in data set [5] is listed as “significantly down-regulates”.
